Measurements: a melting point compilation (Tetko et al.; mined from patent text by program, amines drawn as free bases though some values may be those of a salt)

| Structure (SMILES) | melting point [°C] |
| --- | --- |
| O=C(CSc1nc2ccccc2[nH]1)c1ccc(Br)cc1 | 241 to 245 |
| O=c1c2c[nH]c3c(c-2nn1-c1ccc(Cl)cc1)CC(c1ccccc1)CC3 (centres undefined) | 333 to 335 |
| O=C1N(c2ccc(Cl)cc2Cl)Cc2cnc(Nc3ccccc3)nc2N1c1cccc(CCN2CCNCC2)c1 | 126 |
| CCCCOC(=O)n1nc(-c2cc(Cl)c(C)c(Cl)c2)ccc1=O | 153 to 157 |
| O=C1OC(=O)c2cscc21 | 147 to 149 |
| CC(C)(C)OC(=O)[C@H]1C[C@H](C(=O)O)[C@@H](c2ccccc2)N1C(=O)CNC(=O)Nc1ccc(Cl)cc1 (racemic) | 248 |
| COc1cc(-c2nc(C)c(C(C)=NNC(N)=O)s2)cc(OC)c1OC | 240 to 242 |
| O=C(Nc1ccccc1)NC1CCCCC1 | 164 |
| O=S(=O)(NC1CCN(C2CCCCC2)CC1)c1ccc(Nc2ccnc3cc(Cl)ccc23)cc1 | 192 to 193 |
| Cc1nc2c([nH]1)N(Cc1ccc(Cl)cc1)C1=NC(C)CN1C2=O (centres undefined) | 290 to 291 |
| CC(=O)NC1C(NC(=NC(=O)OC(C)(C)C)NC(=O)OC(C)(C)C)C=C(C(=O)OCCCO)OC1C(O)C1COC(C)(C)O1 (centres undefined) | 86 to 88 |
| CC(C)(CF)C(O)(COc1ccc(F)cc1)Cn1cncn1 (centres undefined) | 97 to 99 |
| CC1(C)C=Cc2c(ccc3c2OCC2(O)c4ccc(O)cc4OC32)O1 (single isomer, unassigned; (-)) | 95 to 101 |
| O=C(CCNC(=O)OCc1ccccc1)NCCSC(=O)c1ccccc1 | 115 to 118 |
| CNC(=O)Nc1ccc(C2=NNC(=O)CC2C)cn1 (centres undefined) | 257 to 259 |
| CC(=O)c1sc(-c2ccc(-c3ccccc3)cc2)nc1C | 124 to 125 |
| N=C(N)c1ccc(-n2ccn(-c3ccc(C=CC(=O)O)cc3)c2=O)cc1 | > 350 |
| CN(c1ccc([N+](=O)[O-])cc1[N+](=O)[O-])S(=O)(=O)c1ccccc1 | 152 to 153 |
| CCCCC(=O)N(Cc1ccc(-c2ccccc2-c2nc(=O)s[nH]2)cc1)c1sccc1C(=O)O | 148 to 149 |
| COC(=O)N(C(=O)C(=O)c1cn(Cc2ccc(Cl)cc2)c2ccccc12)c1ccc2ncccc2c1 | 178 |
| CCCCc1ncc(/C=C(\Cc2cccs2)C(=O)O)n1Cc1ccc(C(=O)OC)cc1 | 217 to 220 |
| CCCC(CCC)(CCC)C(N)=O | 69 |
| Cc1ccc2ccc3ccccc3c2c1O | 88 to 92 |
| CCOC(=O)C12CCC(=O)N1C(=O)CC2 | 77 to 82 |
| CCN(CC)CCOc1ccc(CNC(=O)C#Cc2ccc(C)cc2Cl)cc1 | 135 to 138 |

| Structure (SMILES) | melting point [°C] |
| --- | --- |
| CCN(CC)C(=O)c1cc2ccsc2c(-c2ccccc2Cl)n1 | 86 |
| CNC(=O)COCC(=O)O | 33 to 33.5 |
| CN(C)C1CN(c2cc3nc4c(cc3cc2F)c(=O)c(C(=O)O)cn4C2CC2)C1 | 264 |
| CCn1ncc2c(NCCc3ccccc3)c3ccc(OC)cc3nc21 | 163 to 164 |
| N#CC(C#N)=CN(N=C(C#N)C#N)c1cccc(Cl)c1 | 113 to 115 |
| CCOC(=O)C1CCC2(NCCc3cc(OC)c(OC)cc32)C(C2c3cc(OC)c(OC)cc3CCN2CC)C1 (centres undefined) | 140 to 142 |
| CCOCCn1cc2c(C3C(=O)Nc4ccc(Br)cc43)nc(NCCN3CCOCC3)nc2n1 (centres undefined) | 276 to 278 |
| CCOC(=O)CCCn1c(Nc2ccc(Cl)cc2)nc2c(Cl)ccc(C(CC)CC)c21 | 149 to 150 |
| CC1(C)O[C@H]2CC(O)=C(O)C(=O)[C@H]2O1 | 153 to 154 |
| COc1ccc(-c2cnc3ccc(-c4nnc(SCc5cccc(C(F)(F)F)c5)o4)cn23)cc1 | 104 to 105 |
| COCc1c2c(c(COC)n1-c1ccccc1)C(C)(C(N)=O)CC2(C)C (centres undefined) | 168 to 170 |
| CC(=O)Nn1c(=S)[nH]c2cc(C(=O)O)ccc21 | 334 to 338 |
| NS(=O)(=O)c1ccc2nc(C(F)(F)F)[nH]c(=O)c2c1 | 311 to 314 |
| Cc1c(=O)[nH]c(=O)n2ccsc12 | > 230 |
| Cc1c(C(=O)O)cnn1-c1c(Cl)cc(Cl)cc1Cl | 184 to 186 |
| CCOC(=O)c1cn(Cc2ccccc2)c2cc(C(C)C)nn2c1=O | 135 to 140 |
| CC(C)c1cc(C(=O)CNc2ccc(C(=O)O)cc2)oc1C(C)C | 184 to 186 |
| CNC(=O)C(NC(=O)c1ccc(F)cc1C(F)(F)F)C(C[N+](=O)[O-])c1ccccc1 (centres undefined) | 223 |
| O=C(CC12CC3CC(CC(C3)C1)C2)Nc1ccc2cn[nH]c2c1 | 245 |
| N#Cc1ccc(OCc2ccccc2)c(O)c1 | 101 |
| COc1ccc(C(=O)P2(=O)Oc3ccccc3-c3ccccc32)c(OC)c1 (centres undefined) | 112 to 115 |
| O=C1C(=Cc2ccco2)CCc2cc(OCCn3ccnc3)ccc21 | 109 to 110 |
| CCn1c(C(C#N)c2cc(C)cc(C#N)c2)c(C(C)C)c(=O)[nH]c1=O (centres undefined) | 260 to 261 |
| CCC12CCC3C4CCC(=O)C=C4CCC3C1CCC2(C)O (centres undefined) | 128 to 129 |
| COC(=O)CCCCCCC1=C(OC)C(=O)CC1=O | 103 |

| Structure (SMILES) | melting point [°C] |
| --- | --- |
| C[C@@H](NC(=O)c1noc(-c2ccc(Cl)cc2)n1)[C@](O)(Cn1cncn1)c1ccc(F)cc1F | 79 to 83 |
| CCCCCCCCCCCCCCC1C(=O)OC2OC3(C)CCC4C(C)CCC1C24OO3 (single isomer, unassigned; (+)) | 65 to 66 |
| COc1ccc(-c2ccc(C(=O)CCC(=O)O)cc2)cc1 | 197 to 199 |
| O=C(O)CCCCCCCCCCCCCCCCCCC(=O)ON1C(=O)CCC1=O | 122 to 124 |
| COC(=O)Cc1nc(-c2ccccc2)c2cc(Cl)ccc2n1 | 122 to 123 |
| CN=C1c2ccccc2CCc2ccc(Cl)cc21 | 84 to 114 |
| CC(C)OC(=O)c1cc(F)c(F)c(-c2ccc(Cl)cc2)n1 | 73 to 74 |
| CN1C(=O)c2cscc2N(Cc2ccccc2)c2ccccc21 | 152 to 153 |
| CCC(C)n1nc(C)n(-c2ccc(N3CCCN(c4ccc(C(=O)OC)cc4)CC3)cc2)c1=O (centres undefined) | 152 to 153 |
| CC1C(=O)N(c2cc(Cl)cc(Cl)c2)CS1=O (centres undefined) | 146 to 149 |
| OC1CCN(c2ncc3ncnc(Nc4ccc(F)c(Cl)c4)c3n2)CC1 | 243 to 246 |
| CC(Cc1ccc(OCc2cccc(C(=O)O)c2)cc1)NCCC(c1ccccc1)c1ccccc1 (centres undefined) | 209 to 212 |
| COc1ccc(N2CCN(S(=O)(=O)[C@H](C)[C@](O)(Cn3cncn3)c3ccc(F)cc3F)CC2)cc1 | 190 to 191 |
| COC(=O)c1cccc(NC(=O)C(C)CSC(C)=O)n1 (centres undefined) | 75 to 77 |
| O=CNC1(c2ccccc2)CCN(Cc2ccccc2)CC1 | 140 |
| COCCNc1c(S(=O)(=O)C(F)(F)F)c(C#N)nn1-c1c(Cl)cc(C(F)(F)F)cc1Cl | 164 |
| CC(C)c1ccc(C(=O)Cc2ccsc2)c(C(C)C)c1OS(N)(=O)=O | 136 to 138 |
| CCOc1nn(C(=O)NS(=O)(=O)c2ccccc2N2CCCC2)c(=O)n1C | 68 |
| CC(=O)OC1CSC(Oc2ccc(-c3ccccn3)cc2)C(OC(C)=O)C1OC(C)=O (centres undefined) | 125 to 130 |
| CCCOc1cc(-c2c(C(=O)OCC)c(CCl)nc3cc(OC)c(OC)cc23)ccc1OC | 126 to 128 |
| C[C@H](COc1ccc(C=C2SC(=S)N(CC(=O)O)C2=O)cc1O[C@@H](c1ccccc1)C(F)(F)F)c1ccccc1 | 73 to 80 |
| CCCCOCCOc1ccc(-c2ccc3c(c2)C=C(C(=O)Nc2ccc(CS(=O)c4nncn4C)cc2)CCN3CC(C)C)cc1 (centres undefined) | 87 to 89 |
| O=C(O)CCCc1cc2nc(Cl)ccc2n1S(=O)(=O)c1cc(C(F)(F)F)cc(C(F)(F)F)c1 | 155 to 164 |
| COC(=O)c1cccc(-c2nc(COc3ccc(COc4nn(-c5ccccc5)cc4/C=C/c4nc(N5CCOCC5)sc4C)cc3OC)c(C)o2)c1 | 183 to 184 |
| COc1ccc(S(=O)(=O)C(Cl)(Cl)S(=O)(=O)N(C)C)cc1 | 145 to 147 |

| Structure (SMILES) | melting point [°C] |
| --- | --- |
| Cc1cn(C(C)(C(=O)N(C)C)c2ccccc2)nc1-c1ccccc1 (centres undefined) | 107 to 109 |
| CC(Sc1nc(N)cc(Cl)n1)c1nccc2ccccc12 (centres undefined) | 179 to 180 |
| COc1nc(N)nc2c1ncn2CCC(CO)CO | 84 to 86 |
| Cc1c2n(c(=O)c3c(O)cccc13)CCCS2 | 110 to 112 |
| COC(=O)C(C)(C)Cc1ccc(CC(C)(C)C(=O)OC)cc1 | 74 to 76 |
| O=C(O)C12CC=CCC1CSc1ccccc12 (centres undefined) | 152 to 155 |
| O=C(Nc1ccc(F)cc1)NN1CCN(C(=O)Cn2c(=O)sc3ccc(Cl)cc32)CC1 | > 250 |
| CCOC(OCC)C1Cc2c(Br)ccc(OC)c2C1=O (centres undefined) | 76 to 78 |
| O=c1c2c(CCc3ccncc3)n[nH]c2c2cccnc2n1-c1ccccc1 | 267 to 269 |
| COc1cc(C(=O)c2nc(C#N)c3ccccn23)ccc1[N+](=O)[O-] | 219 |
| CCOC(=O)/C=C/c1cccc(-c2ccc(OCC)c(OC)c2)c1 | 89 to 91 |
| O=C(NCCN1C=CC(c2ccccc2)=CC1)c1ccccc1S(=O)(=O)O | 272 to 274 |
| COc1cc(-n2nc(C(F)(F)F)cc2-c2ccc(S(C)(=O)=O)cc2)ccc1F | 159 to 160 |
| CSc1ccc2c(c1)NC(=O)C2 | 179 to 180 |
| NCC(O)C(Oc1ccc(C(F)(F)F)cc1)c1ccccc1 (centres undefined) | 120 to 122 |
| c1cnc2c(c1)nnn2-c1ccncc1 | 196 to 198 |
| CC1(C)COC(c2ccc(N)c(N)c2)(c2cccs2)OC1 | 178 |
| CCCCCCCC(=O)Nc1ccc2c(C(F)(F)F)cc(=O)oc2c1 | 137 |
| CC(=O)Nc1ccc(Cc2cc(C)c(C(=O)c3ccc(Cl)cc3)n2C)nc1 | 194 to 195 |
| CCOC(=O)/C=C/c1cc(OCc2ccc(OCc3nc(-c4ccco4)oc3C)c(OC)c2)nn1-c1ccccc1 | 127 to 128 |
| Cn1c(-c2ccccc2)cc2onc(-c3ccccc3)c2c1=O | 145 to 148 |
| CCOC(=O)c1cc(-c2ccc(C(F)(F)F)cc2)n[nH]1 | 162 |
| OCCCOC(c1ccccc1)c1ccccc1 | 140 to 141 |
| CCCCCCCCCCC/C=C\c1c[nH]c(C(=O)OC)c1 | 51 to 52 |
